“Also recorded” adds a separate entry of the source.
Assays:
[1] = tested on: cortical and septal neurons; experiment: Aβ-induced degeneration of cortical and septal neurons; assay type: cell-based
[2] = Preliminary studies of oral uptake and blood-brain barrier penetration; assay type: in vivo
[3] = tested on: NFκB-p65; experiment: NFκB-p65 phosphorylation western blot in hippocampal cultures; assay type: cell-based, mouse; settings: 20 nM
Experimental: For assays of Trk, AKT, NFκB, and ERK activation, hippocampal neurons derived from E16-17 mice were cultured in poly-L-lysine coated six-well plates (Corning, Inc., Corning, N.Y., United States of America) in DMEM containing 10% FBS, followed by incubation in serum-free DMEM for 2 hours before addition of neurotrophins or compounds. At the indicated time points, neurons were harvested in lysis buffer consisting of: 20 mM Tris, pH 8.0, 137 mM NaCl, 1% Igepal CA-630, 10% glycerol, 1 mM PMSF, 10 μg/ml aprotinin, 1 μg/ml leupeptin, 500 μM orthovanadate (Zhou, J., Valletta, J. S., Grimes, M. L., Mobley, W. C. (1995) J Neurochem 65, 1146-1156).
Lysates were centrifuged, the supernatant collected, and protein concentrations determined using the BCA Protein Assay Reagent obtained from Pierce (Rockford, Ill., United States of America). Western blots were performed as described previously (Yang, T. et al. (2003) J Neurosci 23, 3353-3363). Western blot signals were detected using the ECL Chemiluminescence System obtained by Amersham (Piscataway, N.J., United States of America) (Yang, T. et al. (2003) J Neurosci 23, 3353-3363).

[4] = tested on: mature oligodendrocytes; experiment: Oligodendrocyte cell death assay (MBP/TUNEL) with or without proNGF; assay type: cell-based, rat; settings: 24 h
Experimental: Cortical oligondendrocytes from rat pups were prepared as previously described (Yoon et al. (1998) J Neurosci 18, 3273-3281, Harrington, A. W., Kim, J. Y., Yoon, S. O. (2002) J Neurosci 22, 156-166). Cells were treated with recombinant, cleavage-resistant proNGF at 0.05 nM (2.8 ng/ml). Controls were treated with equivalent volumes of proNGF purification buffer containing 350 mM imidazole. 24 hours after treatment, the cells were fixed and processed for MBP and TUNEL staining as previously described (Beattie, M. S. et al. (2002) Neuron 36, 375-386). 200-250 cells were counted per well, for a minimum of 600 cells per experimental condition.

[5] = biological target: T1, p75^NTR-expressing 3T3 cells (Homo sapiens, UniProt P08138); experiment: p75NTR antibody (Ab 9651) competition on 3T3 cells, western blot; assay type: binding; settings: 100 nM compound, 90 min, 4° C.
T1 construct: host or cells: NIH3T3 fibroblasts
T1 sequence (P08138 29-427): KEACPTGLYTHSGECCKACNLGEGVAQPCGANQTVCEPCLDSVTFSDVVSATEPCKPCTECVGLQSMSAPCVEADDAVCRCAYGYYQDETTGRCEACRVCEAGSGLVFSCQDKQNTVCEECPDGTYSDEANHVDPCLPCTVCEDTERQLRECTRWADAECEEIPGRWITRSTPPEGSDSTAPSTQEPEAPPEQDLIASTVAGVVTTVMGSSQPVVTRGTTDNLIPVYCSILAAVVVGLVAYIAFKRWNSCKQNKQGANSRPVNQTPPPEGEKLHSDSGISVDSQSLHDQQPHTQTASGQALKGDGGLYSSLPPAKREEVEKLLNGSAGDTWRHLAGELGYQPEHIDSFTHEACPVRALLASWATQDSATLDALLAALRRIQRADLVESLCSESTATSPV
Experimental: NIH3T3 fibroblasts expressing either null vector or p75^NTR (Huang, C. S. et al. (1999) J Biol Chem 274, 36707-36714) were obtained from Dr. William Mobley (Stanford University, Calif., United States of America). Cells were grown in monolayers, harvested in PBS with 2 mM EDTA, pelleted, and resuspended in ice-cold DMEM HEPES with 1 mg/ml BSA. 6-9×10^6 cells from one confluent 6-well plate were used for each experimental point.
For binding analysis, p75^NTR antibody (1:100) was allowed to bind in the presence or absence of 100 nM p75-binding compounds for 90 minutes at 4° C. with gentle rotation, followed by four washes in PBS. The final cell pellet was resuspended in lysis buffer.
Western blots were performed as described above. To detect the presence of p75^NTR antibody, blots were probed with horseradish peroxidase-linked goat anti-rabbit IgG obtained from Amersham/Pharmacia Biotech (Piscataway, N.J., United States of America). Signals were detected by the ECL chemiluminescence system obtained from Amersham Biosciences (Piscataway, […]., United States of America). To control for variation in protein loading, the blot was stripped and reprobed with β-actin monoclonal antibody obtained from Sigma (St. Louis, Mo., United States of America).

[6] = biological target: T2, p75^NTR-Fc (Homo sapiens, UniProt P08138); experiment: NGF/p75NTR-Fc binding by NGF ELISA, Gaddum/Schild fit
T2 construct: purchased R&D Systems
T2 sequence (P08138 with tags, fused parts or gaps limits assumed): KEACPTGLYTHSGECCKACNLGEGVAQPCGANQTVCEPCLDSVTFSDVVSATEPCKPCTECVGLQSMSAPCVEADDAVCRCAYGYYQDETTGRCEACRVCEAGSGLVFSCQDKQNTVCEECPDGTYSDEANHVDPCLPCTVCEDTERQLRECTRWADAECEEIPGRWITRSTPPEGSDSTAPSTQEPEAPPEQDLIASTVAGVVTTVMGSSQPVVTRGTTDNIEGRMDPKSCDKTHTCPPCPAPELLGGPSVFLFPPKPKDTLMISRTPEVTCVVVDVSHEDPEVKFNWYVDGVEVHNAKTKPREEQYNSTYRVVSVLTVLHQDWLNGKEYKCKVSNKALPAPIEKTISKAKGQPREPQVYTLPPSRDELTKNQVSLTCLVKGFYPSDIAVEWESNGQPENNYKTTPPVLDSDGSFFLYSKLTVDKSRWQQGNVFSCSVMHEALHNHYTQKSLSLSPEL
Experimental: Briefly, 96-well plates were incubated with 0.1 pmol (at 1 nM) of p75/Fc or TrkA/Fc recombinant protein obtained from R&D System (Minneapolis, Minn., United States of America) overnight at 4° C. followed by incubation with blocking buffer for 1 hour at room temperature. […] Plates were then washed five times with Tris-buffered saline (TBS) containing 0.05% Tween-20 and incubated with anti-NGF rabbit polyclonal antibody overnight at 4° C. Following five washes with TBS, wells were incubated for 2.5 hours at room temperature with anti-rabbit IgG HRP conjugate and washed five times. 3,3′,5,5′-tetramethyl-benzidine substrate was added and the optical density measured at 450 nm.
A regression analysis of NGF-p75^NTR binding in the presence of the p75-binding compounds was performed. The data was fit using the Nonlinear Regression module of Sigmaplot, to a modification of the Gaddum/Schild equation (adapted from Motulsky, H. J., and Christopoulos. A. (2003) A Practical Guide to Curve Fitting, 2nd edn. (San Diego, Calif., GraphPad Software, Inc.): […]

[7] = Age-related hair loss in middle-aged male mice; assay type: in vivo

blood-brain barrier penetration [2]: blood-brain barrier penetration
oral uptake [2]: significant oral uptake
displacement of anti-p75NTR Ab 9651 [5]: significantly displaced
A2 relative to EC50 of biologic effect [6]: nearly four orders of magnitude greater
compound concentration at which binding curve differs from 0 nM curve (P<0.0001) ([6]; ANOVA with post-hoc Bonferroni/Dunn): ≥ 500 nM
Schild coefficient ([6]; Gaddum-Schild fit): 0.58 +/−0.04
shift of the NGF/p75NTR-Fc binding curve ([6]; increasing compound concentrations): significantly to the right
SMILES: CCC(C)C(N)C(=O)NCCN1CCOCC1 (centres unmarked) [Compound 4]
block of Aβ-induced degeneration of cortical and septal neurons [1]: block Aβ-induced degeneration of cortical and septal neurons
increase in NFκB-p65 phosphorylation [3]: approximately 1.5 fold
inhibition of proNGF-induced oligodendrocyte death ([4]; 2.8 ng/ml (0.05 nM) proNGF): significantly inhibited; also recorded: blocked cell death
promotion of oligodendrocyte cell death by compound alone ([4]; absence of proNGF): did not promote cell death
mice with hair loss, studies taken together ([7]; both studies pooled, p 0.001 Fisher's Exact test vs vehicle): 0 of 14
mice with hair loss ([7]; follow up study, middle-aged male mice, 2-month time point): 0 of 9
mice with age-related hair loss ([7]; three-month toxicology trial, male mice): 0 of 5

— US7723328B2, “Methods of facilitating cell survival using neurotrophin mimetics” (The University of North Carolina at Chapel Hill, priority 2005, dated 2010)
